Data published in US6821980B1, “Substituted 5-benzyl-2,4-diaminopyrimidines” (Basilea Pharmaceutica AG, priority 1999, dated 2004).
Values after ≈ are worked out from the molar mass of the structure shown.

What was measured:
[1] = target: T1, purified DHFR of strain Sp1/1 of Streptococcus pneumoniae (Streptococcus pneumoniae serotype 4, UniProt Q54801); type: biochemical; conditions: Table 2; IC50 against purified DHFR of strain Sp1/1
T1 sequence (Q54801 1-168 I100L): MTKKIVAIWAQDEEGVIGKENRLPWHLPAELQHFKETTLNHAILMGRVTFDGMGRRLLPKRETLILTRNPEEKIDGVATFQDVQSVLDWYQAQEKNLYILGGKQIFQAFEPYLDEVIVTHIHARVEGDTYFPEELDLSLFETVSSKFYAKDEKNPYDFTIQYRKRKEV

[2] = system: Streptococcus pneumoniae 1/1; experiment: MIC against Streptococcus pneumoniae 1/1; type: cell-based; conditions: Table 2; Streptococcus pneumoniae 1/1, trimethoprim- and penicillin-resistant, serotype 6; clinical isolate; read-out: MIC Sp1/1
[3] = target: purified DHFR of strain 157/4696 of Staphylococcus aureus (Staphylococcus aureus, UniProt P13955); experiment: biochemical
purified DHFR of strain 157/4696 of Staphylococcus aureus, sequence (P13955 whole entry): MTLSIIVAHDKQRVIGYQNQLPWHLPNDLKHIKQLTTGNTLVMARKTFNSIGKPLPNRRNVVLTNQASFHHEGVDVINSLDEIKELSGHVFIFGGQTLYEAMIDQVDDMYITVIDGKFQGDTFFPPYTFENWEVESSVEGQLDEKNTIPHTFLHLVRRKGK

[4] = system: Staphylococcus aureus 101; experiment: MIC against Staphylococcus aureus 101; type: cell-based; conditions: Table 2; Staphylococcus aureus 101, MRSA- and trimethoprim-resistant; clinical isolate; read-out: MIC Sa101

SMILES | IC50 [1] | MIC [2] | IC50 [3] | MIC [4]
CCOc1cc(Cc2cnc(N)nc2N)cc(OCC2CC2)c1-c1ccc(OCC#N)cc1 [Example 59-, [2′-Cycloproplmethoxy-4′-(2,4-diamino-pyrimidin-5-ylmethyl)-6′-ethoxy-biphenyl-4-yloxy]-acetonitrile] | 18 nM | 2 µg/mL (≈ 4.49 µM) | 1800 nM | 8 µg/mL (≈ 18 µM)
CCOc1cc(Cc2cnc(N)nc2N)cc(OCC)c1-c1ccc(CN(C)CCF)cc1 [Example 04-ac, 5-(2,6-Diethoxy-4′-{[N-(2-fluoro-ethyl)-N-methyl-amino]-methyl}-biphenyl-4-ylmethyl)-pyrimidine-2,4-diamine] | 59 nM | 4 µg/mL (≈ 8.82 µM) | 450 nM | 8 µg/mL (≈ 17.6 µM)
CCOc1cc(Cc2cnc(N)nc2N)cc(OS(C)(=O)=O)c1-c1ccc(OC)cc1 [Example 16-a, Methanesulphonic acid 4-(2,4-diamino-pyrimidin-5-ylmethyl)-6-ethoxy-4′-methoxy-biphenyl-2-yl ester] | 21 nM | 2 µg/mL (≈ 4.5 µM) | 310 nM | 4 µg/mL (≈ 9 µM)
CCOc1cc(Cc2cnc(N)nc2N)cc(OS(=O)(=O)C2CC2)c1-c1ccc(O)cc1 [Example 15-e, Cylopropanesulphonic acid 4-(2,4-diamino-pyrimidin-5-ylmethyl)-6-ethoxy-4′-hydroxn-biphenyl-2-yl ester] | 12 nM | 1 µg/mL (≈ 2.19 µM) | 94 nM | 8 µg/mL (≈ 17.5 µM)
CCOc1cc(Cc2cnc(N)nc2N)cc(OS(=O)(=O)N(C)CC)c1-c1ccc(CN2CCOCC2)c(N)c1 [Example 30-c, N-Ethyl-N-methyl-sulphamic acid 3′-amino-4-(2,4-diamino-pyrimidin-5-ylmethyl)-6-ethoxy-4′-morpholin-4-ylmethyl-biphenyl-2-yl ester] | 16 nM | 2 µg/mL (≈ 3.5 µM) | 140 nM | 2 µg/mL (≈ 3.5 µM)
CCOc1cc(Cc2cnc(N)nc2N)cc(OS(=O)(=O)C2CC2)c1-c1cccc(N)c1 [Example 34-a, Cyclopropanesulphonic acid 3′-amino-4-(2,4-diamino-pyrimidin-5-ylmethyl)-6-ethoxy-bilphenyl-2-yl ester] | 9.2 nM | 1 µg/mL (≈ 2.2 µM) | 270 nM | 2 µg/mL (≈ 4.39 µM)
CCOc1cc(Cc2cnc(N)nc2N)cc(OS(=O)(=O)CC(C)C)c1-c1ccc(N)c(F)c1 [Example 36-b, 2-Methyl-propane-1-sulphonic acid 4′-amino-4-(2,4-diamino-pyrimidin-5-ylmethyl)-6-ethoxy-3′-fluoro-biphenyl-2-yl ester] | 5.8 nM | 0.5 µg/mL (≈ 1.02 µM) | 230 nM | 8 µg/mL (≈ 16.3 µM)
CCOc1cc(Cc2cnc(N)nc2N)cc(OCC)c1-c1ccc(SC)nc1 [Example 03-e, 5-[3,5-Diethoxy-4-(6-methylsulphanyl-pyridin-3-yl)-benzyl]-pyrimidine-2,4-diamine] | 80 nM | 4 µg/mL (≈ 9.72 µM) | 2100 nM | 8 µg/mL (≈ 19.4 µM)
CCOc1cc(Cc2cnc(N)nc2N)cc(OCC)c1-c1cc(C)nc(C)c1 [Example 03-d, 5-[4-(2,6-Dimethyl-pyridin-4-yl)-3,5-diethoxy-benzyl]-pyrimidine-2,4-diamine] | 340 nM | 8 µg/mL (≈ 20.3 µM) | 6000 nM | 8 µg/mL (≈ 20.3 µM)
CCOc1cc(Cc2cnc(N)nc2N)cc(OS(=O)(=O)N(C)C)c1-c1ccc(OC)cc1 [Example 21-, Dimethylsulphamic acid 4-(2,4-diamino-pyrimidin-5-ylmethyl)-6-ethoxy-4′-methoxy-biphenyl-2-yl ester] | 52 nM | 2 µg/mL (≈ 4.22 µM) | 130 nM | 2 µg/mL (≈ 4.22 µM)
CCOc1cc(Cc2cnc(N)nc2N)cc(OS(=O)(=O)CC2CCCO2)c1-c1ccc(N)c(C)c1 (centres unmarked) [Example 42-c, Tetrahydrofuran-2-yl-methanesulphonic acid 4′-amino-4-(2,4-diamino-pyrimidin-5-ylmethyl)-6-ethoxy-3′-methyl-biphenyl-2-yl ester] | 6.3 nM | 1 µg/mL (≈ 1.95 µM) | 300 nM | 8 µg/mL (≈ 15.6 µM)
